Patent publication US20100311714A1, “1H-IMIDAZO[4,5-c]QUINOLINONE COMPOUNDS” (priority 2009, published 2010)
Where two headings read alike, the source gives them in different places.

Assays:
mTOR = molecular target: T1, mTOR (Homo sapiens, UniProt P42345); experiment: Biochemical assay for m-TOR by TR-FRET
T1 construct: purchased Invitrogen Corporation (Carlsbad/Calif., USA) PV4753
Outline: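 mTOR (0.5 nM) phosphorylates GFP-4EBP1 (400 nM) with 8 μM ATP at rt in 50 mM HEPES pH 7.5, 10 mM MnCl2, 50 mM NaCl, 1 mM EGTA, 1 mM DTT; compounds 0.003–10 μM final. EDTA stop with Tb-anti-p4EBP1[pT46] antibody (0.5 nM); TR-FRET read after 15 min against no-enzyme and vehicle controls.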

[1] = tested on: PKB Ser473 phosphorylation in Rat1-myr-HA-p110 beta cells; experiment: Reverse protein array, PKB Ser473 phosphorylation in Rat1-myr-HA-p110 beta cells; assay type: cell-based; details: Rattus norvegicus, 0.5 h, 30 minutes compound incubation, read-out: p-PKB/IC50_beta
[2] = Parallel Artificial Membrane Permeability Assay (PAMPA) at pH 6.8; assay type: physicochemical
Outline: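 PAMPA permeability measured at pH 6.8 following the Wohnsland and Faller method; value reported as log Pe.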

[3] = tested on: PKB Ser473 phosphorylation in Rat1-myr-HA-p110 alpha cells; experiment: Reverse protein array, PKB Ser473 phosphorylation in Rat1-myr-HA-p110 alpha cells; assay type: cell-based; details: Rattus norvegicus, 0.5 h, 30 minutes compound incubation, read-out: p-PKB/IC50_alpha

T1 sequence (P42345 1360-2549 limits assumed): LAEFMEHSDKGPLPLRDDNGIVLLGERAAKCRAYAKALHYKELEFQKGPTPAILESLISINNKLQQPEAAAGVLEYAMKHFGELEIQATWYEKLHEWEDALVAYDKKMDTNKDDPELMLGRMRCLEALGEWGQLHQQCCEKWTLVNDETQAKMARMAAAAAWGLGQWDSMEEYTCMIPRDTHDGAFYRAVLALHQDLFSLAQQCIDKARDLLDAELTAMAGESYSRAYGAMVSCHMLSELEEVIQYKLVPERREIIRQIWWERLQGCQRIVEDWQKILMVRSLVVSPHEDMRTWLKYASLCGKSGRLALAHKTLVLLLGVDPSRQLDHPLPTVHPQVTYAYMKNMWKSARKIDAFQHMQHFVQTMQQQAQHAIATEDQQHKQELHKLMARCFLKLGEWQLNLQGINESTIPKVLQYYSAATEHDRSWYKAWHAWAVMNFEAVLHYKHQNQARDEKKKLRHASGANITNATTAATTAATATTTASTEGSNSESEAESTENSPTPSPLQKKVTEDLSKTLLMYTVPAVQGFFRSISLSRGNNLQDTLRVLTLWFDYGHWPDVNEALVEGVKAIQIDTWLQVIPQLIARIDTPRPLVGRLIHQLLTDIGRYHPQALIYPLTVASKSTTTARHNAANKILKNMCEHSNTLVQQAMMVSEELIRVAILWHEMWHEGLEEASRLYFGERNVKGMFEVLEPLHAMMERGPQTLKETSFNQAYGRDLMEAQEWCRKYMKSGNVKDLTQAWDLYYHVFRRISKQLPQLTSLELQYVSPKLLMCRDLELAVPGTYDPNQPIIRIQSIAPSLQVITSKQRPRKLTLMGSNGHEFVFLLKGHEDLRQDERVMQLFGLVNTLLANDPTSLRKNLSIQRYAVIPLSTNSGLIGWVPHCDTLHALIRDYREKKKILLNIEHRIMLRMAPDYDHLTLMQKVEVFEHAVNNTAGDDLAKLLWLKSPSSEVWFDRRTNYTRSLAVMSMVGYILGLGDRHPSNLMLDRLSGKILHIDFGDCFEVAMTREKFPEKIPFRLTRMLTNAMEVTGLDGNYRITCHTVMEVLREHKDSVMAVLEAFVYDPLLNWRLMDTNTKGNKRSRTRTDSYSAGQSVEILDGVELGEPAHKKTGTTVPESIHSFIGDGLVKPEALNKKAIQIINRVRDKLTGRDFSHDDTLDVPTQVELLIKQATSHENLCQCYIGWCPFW

| Structure (SMILES) | IC50 (mTOR; read-out: mTOR/IC50) | IC50 [1] | HT-perm/logPe pH6.8 [2] | IC50 [3] | IC50 (mTOR; read-out: EPK_mTOR/IC50) | HT-Perm logPe pH6.8 [2] |
| --- | --- | --- | --- | --- | --- | --- |
| CN(C)c1ccc(-c2ccc3ncc4c(c3c2)n(-c2cccnc2)c(=O)n4C)cn1 [Example 5.3, 8-(6-Dimethylamino-pyridin-3-yl)-3-methyl-1-pyridin-3-yl-1,3-dihydro-imidazo[4,5-c]quinolin-2-one] | 253 nM | 185 nM | −3.9 | 92.2 nM |  |  |
| CNc1ncc(-c2ccc3ncc4c(c3c2)n(-c2ccc(N3CC[C@H](O)C3)nc2C)c(=O)n4C)cn1 [Example 32.1, 1-[6-((S)-3-Hydroxy-pyrrolidin-1-yl)-2-methyl-pyridin-3-yl]-3-methyl-8-(2-methylamino-pyrimidin-5-yl)-1,3-dihydro-imidazo[4,5-c]quinolin-2-one] |  | < 4.57 nM |  | < 4.57 nM | 4 nM | −5 |
| Cc1nc(C(F)(F)F)ccc1-n1c(=O)n(C)c2cnc3ccc(-c4cncc(C(C)(C)O)c4)cc3c21 [Example 33.1, 8-[5-(1-Hydroxy-1-methyl-ethyl)-pyridin-3-yl]-3-methyl-1-(2-methyl-6-trifluoromethyl-pyridin-3-yl)-1,3-dihydro-imidazo[4,5-c]quinolin-2-one] |  | 50 nM |  | 19 nM | 92 nM | −4.5 |
| CCOc1ccc(-c2ccc3ncc4c(c3c2)n(-c2cccnc2F)c(=O)n4C)cn1 [Example 6.1, 8-(6-Ethoxy-pyridin-3-yl)-1-(2-fluoro-pyridin-3-yl)-3-methyl-1,3-dihydro-imidazo[4,5-c]quinolin-2-one] | 107 nM | 56.2 nM | −3.9 | 31.5 nM |  |  |
| CNc1ncc(-c2ccc3ncc4c(c3c2)n(-c2ccc(N3CC[C@H](O)C3)nc2C)c(=O)n4C)cc1F [Example 32.2, 8-(5-Fluoro-6-methylamino-pyridin-3-yl)-1-[6-((S)-3-hydroxy-pyrrolidin-1-yl)-2-methyl-pyridin-3-yl]-3-methyl-1,3-dihydro-imidazo[4,5-c]quinolin-2-one] |  | 15.2 nM |  | 8.1 nM | 10 nM | −4.8 |
| COc1ncc(-c2ccc3ncc4c(c3c2)n(-c2ccc(N3CC[C@H](O)C3)nc2C)c(=O)n4C)c(OC)n1 [Example 32.3, 8-(2,4-Dimethoxy-pyrimidin-5-yl)-1-[6-((S)-3-hydroxy-pyrrolidin-1-yl)-2-methyl-pyridin-3-yl]-3-methyl-1,3-dihydro-imidazo[4,5-c]quinolin-2-one] |  | 80 nM |  | 45 nM | 15 nM | −5.3 |
| CNc1cc(-c2ccc3ncc4c(c3c2)n(-c2cccnc2C)c(=O)n4C)cnc1C [Example 2.32, 3-Methyl-8-(6-methyl-5-methylamino-pyridin-3-yl)-1-(2-methyl-pyridin-3-yl)-1,3-dihydro-imidazo[4,5-c]quinolin-2-one] |  | 6 nM |  | < 4.57 nM | 7 nM | −4.8 |
| CCNc1ncc(-c2ccc3ncc4c(c3c2)n(-c2ccc(N3CC[C@@H](O)C3)nc2C)c(=O)n4C)cc1C(F)(F)F [Example 34.2, 8-(6-Ethylamino-5-trifluoromethyl-pyridin-3-yl)-1-[6-((R)-3-hydroxy-pyrrolidin-1-yl)-2-methyl-pyridin-3-yl]-3-methyl-1,3-dihydro-imidazo[4,5-c]quinolin-2-one] |  | 15.2 nM |  | 11.7 nM | 36 nM | −3.9 |
| Cc1nc(N2CCC2)ccc1-n1c(=O)n(C)c2cnc3ccc(-c4cncc(C(C)(C)O)c4)cc3c21 [Example 23.3, 1-(6-Azetidin-1-yl-2-methyl-pyridin-3-yl)-8-[5-(1-hydroxy-1-methyl-ethyl)-pyridin-3-yl]-3-methyl-1,3-dihydro-imidazo[4,5-c]quinolin-2-one] |  | 23.1 nM |  | 5.7 nM | 7 nM | −5 |
| CCOc1cc(-c2ccc3ncc4c(c3c2)n(-c2ccc(OCCOC)nc2C)c(=O)n4C)cnc1COC [Example 22.1, 8-(5-Ethoxy-6-methoxymethyl-pyridin-3-yl)-1-[6-(2-methoxy-ethoxy)-2-methyl-pyridin-3-yl]-3-methyl-1,3-dihydro-imidazo[4,5-c]quinolin-2-one] |  | 66.7 nM |  | 17.7 nM | 98 nM | −3.8 |
| Cc1nc(N2CCN(C)C(=O)C2)ccc1-n1c(=O)n(C)c2cnc3ccc(-c4cnc(N)c(C(F)(F)F)c4)cc3c21 [Example 21.1, 8-(6-Amino-5-trifluoromethyl-pyridin-3-yl)-3-methyl-1-[2-methyl-6-(4-methyl-3-oxo-piperazin-1-yl)-pyridin-3-yl]-1,3-dihydro-imidazo[4,5-c]quinolin-2-one] |  | 5.3 nM |  | < 4.57 nM | < 3 nM | −6.1 |
| Cc1ncccc1-n1c(=O)n(C)c2cnc3ccc(-c4cncc(N)c4)cc3c21 [Example 2.25, 8-(5-Amino-pyridin-3-yl)-3-methyl-1-(2-methyl-pyridin-3-yl)-1,3-dihydro-imidazo[4,5-c]quinolin-2-one] |  | 58.7 nM |  | 36.3 nM | 12 nM | −7.7 |
| CCOc1ncc(-c2ccc3ncc4c(c3c2)n(-c2cccnc2C)c(=O)n4C)cn1 [Example 2.5, 8-(2-Ethoxy-pyrimidin-5-yl)-3-methyl-1-(2-methyl-pyridin-3-yl)-1,3-dihydro-imidazo[4,5-c]quinolin-2-one] | 166 nM | 53.8 nM | −4.0 | 49 nM |  |  |
| Cc1nc(N(C)CCO)ccc1-n1c(=O)n(C)c2cnc3ccc(-c4cnc(N)c(C(F)(F)F)c4)cc3c21 [Example 26.1, 8-(6-Amino-5-trifluoromethyl-pyridin-3-yl)-1-{6-[(2-hydroxy-ethyl)-methyl-amino]-2-methyl-pyridin-3-yl}-3-methyl-1,3-dihydro-imidazo[4,5-c]quinolin-2-one] |  | < 4.57 nM |  | < 4.57 nM | < 6 nM | −4.2 |
| COC1CCN(c2ccc(-n3c(=O)n(C)c4cnc5ccc(-c6cncc(C(C)(C)O)c6)cc5c43)c(C)n2)C1 (stereo not shown) [Example 28.1, 8-[5-(1-Hydroxy-1-methyl-ethyl)-pyridin-3-yl]-1-[6-(3-methoxy-pyrrolidin-1-yl)-2-methyl-pyridin-3-yl]-3-methyl-1,3-dihydro-imidazo[4,5-c]quinolin-2-one] |  | 36.7 nM |  | 22.7 nM | 22 nM | −5.1 |
| CNc1cncc(-c2ccc3ncc4c(c3c2)n(-c2cccnc2C)c(=O)n4C)c1 [Example 2.26, 3-Methyl-8-(5-methylamino-pyridin-3-yl)-1-(2-methyl-pyridin-3-yl)-1,3-dihydro-imidazo[4,5-c]quinolin-2-one] |  | 7.4 nM |  | 6.4 nM | 22 nM | −5.3 |
| CNc1ccc(-c2ccc3ncc4c(c3c2)n(-c2cccnc2C)c(=O)n4C)cn1 [Example 2.13, 3-Methyl-8-(6-methylamino-pyridin-3-yl)-1-(2-methyl-pyridin-3-yl)-1,3-dihydro-imidazo[4,5-c]quinolin-2-one] | 19 nM | 18.7 nM | −4.7 | 11.5 nM |  |  |
| Cc1nc(F)ccc1-n1c(=O)n(C)c2cnc3ccc(-c4cnc(N)c(C(F)(F)F)c4)cc3c21 [Example 7.1, 8-(6-Amino-5-trifluoromethyl-pyridin-3-yl)-1-(6-fluoro-2-methyl-pyridin-3-yl)-3-methyl-1,3-dihydro-imidazo[4,5-c]quinolin-2-one] | 8 nM | 13.4 nM | −3.8 | 11.8 nM |  |  |
| CCOc1ccc(-c2ccc3ncc4c(c3c2)n(-c2ccc(F)nc2C)c(=O)n4C)cn1 [Example 7.3, 8-(6-Ethoxy-pyridin-3-yl)-1-(6-fluoro-2-methyl-pyridin-3-yl)-3-methyl-1,3-dihydro-imidazo[4,5-c]quinolin-2-one] | 59 nM | 43.8 nM | −3.7 | 42.2 nM |  |  |
| COc1ncccc1-n1c(=O)n(C)c2cnc3ccc(-c4cnc5[nH]ccc5c4)cc3c21 [Example 1.2, 1-(2-Methoxy-pyridin-3-yl)-3-methyl-8-(1H-pyrrolo[2,3-b]pyridin-5-yl)-1,3-dihydro-imidazo[4,5-c]quinolin-2-one] | 4 nM | < 4.57 nM | −4.5 | 5.7 nM |  |  |
| CNc1ncc(-c2ccc3ncc4c(c3c2)n(-c2ccc(N(C)CCO)nc2C)c(=O)n4C)cn1 [Example 26.2, 1-{6-[(2-Hydroxy-ethyl)-methyl-amino]-2-methyl-pyridin-3-yl}-3-methyl-8-(2-methylamino-pyrimidin-5-yl)-1,3-dihydro-imidazo[4,5-c]quinolin-2-one] |  | < 4.57 nM |  | 5.1 nM | 3 nM | −4.9 |
| CCOc1cc(-c2ccc3ncc4c(c3c2)n(-c2ccc(N3CCCC3)nc2C)c(=O)n4C)cnc1COC [Example 25.2, 8-(5-Ethoxy-6-methoxymethyl-pyridin-3-yl)-3-methyl-1-(2-methyl-6-pyrrolidin-1-yl-pyridin-3-yl)-1,3-dihydro-imidazo[4,5-c]quinolin-2-one] |  | 39.9 nM |  | 48 nM | 76 nM | −3.9 |
